Data: patent publication US6403633B2, “Heteroaryl amidines, methylamidines and guanidines, and use thereof as protease inhibitors” (3-Dimensional Pharmaceuticals, Inc., priority 1998, dated 2002)
pKi: −log10 of the molar value. Counter-ions that a name gives are not always drawn.

Legend:
Assay type in all cases: biochemical
C1S = biological target: T1, C1S (Homo sapiens, UniProt P09871); assay: In vitro inhibition of purified enzymes, Ki determination: C1S; conditions: no enzyme-specific conditions printed
T1 sequence (P09871 16-688): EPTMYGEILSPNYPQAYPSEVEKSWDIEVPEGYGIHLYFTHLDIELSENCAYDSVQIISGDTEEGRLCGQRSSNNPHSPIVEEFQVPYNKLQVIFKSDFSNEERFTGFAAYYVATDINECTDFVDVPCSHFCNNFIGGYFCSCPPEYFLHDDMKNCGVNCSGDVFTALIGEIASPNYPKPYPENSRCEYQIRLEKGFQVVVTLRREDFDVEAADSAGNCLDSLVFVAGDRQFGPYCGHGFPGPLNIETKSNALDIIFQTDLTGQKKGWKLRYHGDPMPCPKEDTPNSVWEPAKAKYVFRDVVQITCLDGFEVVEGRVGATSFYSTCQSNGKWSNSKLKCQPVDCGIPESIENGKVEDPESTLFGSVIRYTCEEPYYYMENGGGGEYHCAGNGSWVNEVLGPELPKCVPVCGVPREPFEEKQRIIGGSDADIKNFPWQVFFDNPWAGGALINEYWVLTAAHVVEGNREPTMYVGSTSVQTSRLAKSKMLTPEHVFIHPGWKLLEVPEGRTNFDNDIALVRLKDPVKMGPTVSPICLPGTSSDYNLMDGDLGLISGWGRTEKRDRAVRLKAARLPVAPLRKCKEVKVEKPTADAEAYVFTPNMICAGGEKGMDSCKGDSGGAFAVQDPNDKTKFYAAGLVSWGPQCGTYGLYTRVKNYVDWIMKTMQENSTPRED
From the text: (§1) Human α-thrombin, human factor Xa and human plasmin were obtained from Enzyme Research Laboratories (South Bend, Ind.). Bovine α-chymotrypsin (Sigma C4129), bovine trypsin (Sigma T8642) and human kidney cell urokinase (Sigma U5004) were obtained from Sigma. Human leukocyte elastase was obtained from Elastin Products (Pacific, Mo.). Ki Determinations: All assays are based on the ability of the test compound to inhibit the enzyme catalyzed hydrolysis of a peptide p-nitroanilide substrate. […] The final concentrations for each of the substrates is listed below. In general, substrate concentrations are lower than the experimentally determined value for Km. […]
(§2) In a typical Ki determination, into each well of a 96 well plate is pipetted 280 μL of substrate solution, 10 μL of test compound solution, and the plate allowed to thermally equilibrate at 37° C. in a Molecular Devices plate reader for >15 minutes. Reactions were initiated by the addition of a 10 μL aliquot of enzyme and the absorbance increase at 405 nm is recorded for 15 minutes. […] The ratio of the velocity (rate of change in absorbance as a function of time) for a sample containing no test compound is divided by the velocity of a sample containing test compound, and is plotted as a function of test compound concentration. The data are fit to a linear regression, and the value of the slope of the line calculated. […]

tPA = tPA (Homo sapiens, UniProt P00750); assay: In vitro inhibition of purified enzymes, Ki determination: tPA; conditions: no enzyme-specific conditions printed
From the text: as §1, §2

Bovine α-chymotrypsin = biological target: T2, Bovine α-chymotrypsin (Bos taurus, UniProt P00766); assay: In vitro inhibition of purified enzymes, Ki determination: chymotrypsin; conditions: substrate N-succinyl-Ala-Ala-Pro-Phe-p-nitroanilide 14 μM, [Chymotrypsin]=2.7 nM, pH 7.5, 37° C.
T2 construct: purchased Sigma C4129
From the text: (§3) Reagents: All buffer salts were obtained from Sigma Chemical Company (St. Louis, Mo.), and were of the highest purity available. The enzyme substrates, N-benzoyl-Phe-Val-Arg-p-nitroanilide (Sigma B7632), N-benzoyl-Ile-Glu-Gly-Arg-p-nitroanilide hydrochloride (Sigma B2291), N-p-tosyl-Gly-Pro-Lys-p-nitroanilide (Sigma T6140), N-succinyl-Ala-Ala-Pro-Phe-p-nitroanilide (Sigma S7388) and N-CBZ-Val-Gly-Arg-p-nitroanilide (Sigma C7271) were obtained from Sigma. N-Succinyl-Ala-Ala-Pro-Arg-p-nitroanilide (BACHEM L-1720) and N-succinyl-Ala-Ala-Pro-Val-p-nitroanilide (BACHEM L-1770) were obtained from BACHEM (King of Prussia, Pa).
(§4) Human α-thrombin, human factor Xa and human plasmin were obtained from Enzyme Research Laboratories (South Bend, Ind.). […] In general, substrate concentrations are lower than the experimentally determined value for Km. […]
(§5) In a typical Ki determination, into each well of a 96 well plate is pipetted 280 μL of substrate solution, 10 μL of test compound solution, and the plate allowed to thermally equilibrate at 37° C. in a Molecular Devices plate reader for >15 minutes. Reactions were initiated by the addition of a 10 μL aliquot of enzyme and the absorbance increase at 405 nm is recorded for 15 minutes. […] The data are fit to a linear regression, and the value of the slope of the line calculated. The inverse of the slope is the experimentally determined Ki value. […]

human plasmin = biological target: T3, human plasmin (Homo sapiens, UniProt P00747); assay: In vitro inhibition of purified enzymes, Ki determination: plasmin; conditions: substrate N-p-Tosyl-Gly-Pro-Lys-p-nitroanilide 37 μM, [Plasmin]=8 nM, pH 7.5, 37° C.
T3 construct: purchased Enzyme Research Laboratories
From the text: as §3, §4, §5

human factor Xa = biological target: T4, human factor Xa (Homo sapiens, UniProt P00742); assay: In vitro inhibition of purified enzymes, Ki determination: Factor Xa; conditions: substrate N-benzoyl-Ile-Glu-Gly-Arg-p-nitroanilide hydrochloride 51 μM, [FXa]=10 nM, pH 7.5, 37° C.
T4 construct: purchased Enzyme Research Laboratories
From the text: as §3, §4, §5

T4 sequence (P00742 235-488 limits assumed): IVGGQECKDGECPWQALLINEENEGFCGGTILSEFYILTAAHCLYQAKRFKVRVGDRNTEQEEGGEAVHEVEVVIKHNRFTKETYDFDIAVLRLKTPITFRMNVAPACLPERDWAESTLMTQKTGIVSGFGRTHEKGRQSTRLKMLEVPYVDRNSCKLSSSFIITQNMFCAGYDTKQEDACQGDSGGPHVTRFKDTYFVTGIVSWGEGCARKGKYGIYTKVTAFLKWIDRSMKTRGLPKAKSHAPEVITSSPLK
T4 sequence (P00742 41-179 partner limits assumed): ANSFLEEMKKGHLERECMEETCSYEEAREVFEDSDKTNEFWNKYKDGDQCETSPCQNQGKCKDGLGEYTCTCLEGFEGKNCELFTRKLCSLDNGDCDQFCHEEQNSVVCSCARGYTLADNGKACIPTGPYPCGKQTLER
tPA, sequence (P00750 36-562, species assumed): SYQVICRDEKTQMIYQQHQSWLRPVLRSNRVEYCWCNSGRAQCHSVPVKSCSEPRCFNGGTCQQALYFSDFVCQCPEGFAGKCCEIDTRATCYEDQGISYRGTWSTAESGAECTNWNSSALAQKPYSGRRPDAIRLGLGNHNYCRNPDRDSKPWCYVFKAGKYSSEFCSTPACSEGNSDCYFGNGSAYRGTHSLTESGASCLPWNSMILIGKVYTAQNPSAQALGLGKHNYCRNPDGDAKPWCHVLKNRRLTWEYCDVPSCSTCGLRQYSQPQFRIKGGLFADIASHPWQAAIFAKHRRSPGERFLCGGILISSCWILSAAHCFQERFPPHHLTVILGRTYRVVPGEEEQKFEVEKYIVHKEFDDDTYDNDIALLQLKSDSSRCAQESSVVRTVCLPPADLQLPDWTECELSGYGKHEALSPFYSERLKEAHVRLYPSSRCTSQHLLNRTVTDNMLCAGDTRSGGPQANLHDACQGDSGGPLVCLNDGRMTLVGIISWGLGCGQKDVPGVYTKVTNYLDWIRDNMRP
T3 sequence (P00747 581-810 limits assumed): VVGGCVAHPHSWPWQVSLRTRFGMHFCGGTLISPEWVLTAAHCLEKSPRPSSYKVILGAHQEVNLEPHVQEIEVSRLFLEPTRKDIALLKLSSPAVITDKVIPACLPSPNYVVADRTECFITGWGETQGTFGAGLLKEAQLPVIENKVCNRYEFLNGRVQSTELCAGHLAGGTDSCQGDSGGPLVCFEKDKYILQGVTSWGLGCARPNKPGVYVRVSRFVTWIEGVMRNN
T3 sequence (P00747 97-580 partner limits assumed): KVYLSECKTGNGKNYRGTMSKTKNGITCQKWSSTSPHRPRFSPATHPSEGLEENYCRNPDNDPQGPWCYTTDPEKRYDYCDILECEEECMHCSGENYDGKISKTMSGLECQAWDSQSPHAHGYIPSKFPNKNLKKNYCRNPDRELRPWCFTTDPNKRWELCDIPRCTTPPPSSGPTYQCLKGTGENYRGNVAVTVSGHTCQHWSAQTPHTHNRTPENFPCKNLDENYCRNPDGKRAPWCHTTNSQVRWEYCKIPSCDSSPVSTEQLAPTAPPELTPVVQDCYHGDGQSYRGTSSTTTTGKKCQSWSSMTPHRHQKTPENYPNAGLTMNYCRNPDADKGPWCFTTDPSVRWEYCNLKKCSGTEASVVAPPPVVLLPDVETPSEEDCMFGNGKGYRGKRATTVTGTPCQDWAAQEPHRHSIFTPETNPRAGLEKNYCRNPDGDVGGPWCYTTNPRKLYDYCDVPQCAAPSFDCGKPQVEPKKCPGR

4-[Bis(phenylsulfonyl)amino]-5-methylthiophene-2-carboxamidine [Example 283]
pKi (C1S): 6.03

CSc1sc(C(=N)N)cc1-c1nc(-c2ccc(Cl)cc2)cs1 [Example 1, 4-[4-(4-chlorophenyl)(1,3-thiazol-2-yl)]-5-methylthiothiophene-2-carboxamidine]
pKi (tPA): 5.02

CSc1sc(C(=N)N)cc1-c1nc(-c2ccc([N+](=O)[O-])cc2)cs1 [Example 11, 5-Methylthio-4-[4-(4-nitrophenyl)(1,3-thiazol-2-yl)]thiophene-2-carboxamidine hydrochloride]
pKi (Bovine α-chymotrypsin): 5.31

CSc1sc(C(=N)N)cc1-c1nc(-c2ccc3c(c2)OCCO3)cs1 [Example 12, 4-[4-(3,4-Ethylenedioxyphenyl)thiazol-2-yl]-5-methylthiothiophene-2-carboxamidine hydrochloride]
pKi (human plasmin): 5.14

CSc1sc(C(N)=NC#N)cc1-c1nc(-c2ccccc2)cs1 [Example 94, 3-Amino-2-aza-3-[5-methylthio-4-(4-phenyl(1,3-thiazol-2-yl))(2-thienyl)]prop-2-enenitrile]
pKi (human factor Xa): 5.56

CSc1sc(C(=N)N)cc1-c1nc(-c2sc3ccccc3c2Cl)cs1 [Example 119, 4-[4-(3-chlorobenzo[b]thiophen-2-yl)(1,3-thiazol-2-yl)]-5-methylthiothiophene-2-carboxamidine hydrochloride]
pKi (human factor Xa): 5.52
